Data from US20060111259A1, “Detergent composition” (Conopco Inc, d/b/a UNILEVER, priority 2004, published 2006).

System: Staphylococcus epidermidis biofilm
Assay: In-vitro biofilm microtitre plate assay, regrowth of biofilm after 1 minute treatment (growth index, GRI)
Type: cell-based
Details: conclusion in words from normalised GRI of soap + clay + antibacterial combinations
Method: A biofilm based microtitre plate assay was used to determine the antibacterial efficacy of the test suspensions. The efficacy is measured in terms of an index called the growth index [GRI].
An axillary isolate of Staphylococcus epidermidis was used for all the studies. The isolate was maintained on sterile CYAgar [Blood agar base 2—42 gm.1^−1, dextrose—2 gm.1^−1, yeast extract—3 gm.1^−1, polysorbate 80—5 gm.1^−1]. 24 hrs prior to the study, the isolate was subcultured onto fresh sterile CYAgar and incubated at 37° C. […]
Standardization of biofilm in terms of its attachment to polystyrene wells was initially carried out by crystal violet staining and quantification of cell numbers. […]
A kinetic assay was performed to measure the regrowth of the biofilm in an iEMS reader using the Thermo Labsystems Ascent Software™. Readings were recorded at 37° C. for 24 hrs on an hourly basis at 620 nm.
Growth of bacteria is represented by 4 phases—lag phase, exponential phase, stationary phase and death phase. […] The cumulative effect of the antibacterial over the placebo effect can be determined by the product of the increase in the time taken to reach the mid log phase from the control, and the decrease in the cell density after 24 hrs of growth. […]

| SMILES | synergistic benefit in antibacterial efficacy |
| --- | --- |
| Oc1cc(Cl)ccc1Oc1ccc(Cl)cc1Cl [TCN, 4,2′,4′-trichloro-2-hydroxy diphenyl ether] | do not provide similar synergistic benefit |
| O=C(Nc1ccc(Cl)cc1)Nc1ccc(Cl)c(Cl)c1 [TCC, 3,4,4′ trichlorocarbanilide] | do not provide similar synergistic benefit |
